Measurements taken from patent US10138208B2, “Pyrazole derivatives as inhibitors of STAT3” (Mayo Foundation for Medical Education and Research, priority 2012, dated 2018).
Entries after “also recorded” stand apart in the source; their conditions may differ. Read-outs that look alike come from different tables or passages of the source.

Experiments:
STAT3 [1] = target: T1, STAT3 (Homo sapiens, UniProt P40763); test: IL-6 induced STAT3 phosphorylation, Western blot / densitometry, dBT114 cells; type: cell-based; conditions: for inhibition of STAT3 phosphorylation: IL-6, 10 μM, Western blot (FIG. 1); for IC50: densitometry of western blots (FIG. 12), read-out: half-maximal inhibitory concentration (IC50) for blocking STAT3 activation; for dose dependence of inhibition of IL-6 induced STAT3 phosphorylation: increasing concentrations (FIG. 2)
T1 construct: To characterize changes in protein levels in whole cell lysates; endogenous in cells; host or cells: dBT114 (human GBM stem cell line)
Experimental: (§1) Compounds described herein can be tested for blocking the activation of phospho-STAT3 in vitro. […] The compounds were tested for inhibiting IL-6 induced phosphorylation of STAT3 in a human Glioblastoma GBM stem cell line (dBT114) and in the murine GBM cell line, GL261. IL-6 potently activates STAT3 phosphorylation in dBT114 cells but not as much in GL261 cells (FIG. 1), showing that GL261 cells have constitutively activated STAT3. […] A dose dependent decrease of IL-6 induced STAT3 phosphorylation in dBT114 cells using increasing concentrations of our compounds was observed, while no effect was seen on the levels of activated MAP kinase (FIG. 2).
Western Blot Analysis: Prior to analysis, cells were washed twice in cold phosphate buffered saline (PBS) and flash frozen in 200 μL of lysis buffer (50 mm/L NaCl, 50 mmol/L NaF, 50 mmol/L sodium pyrophosphate, 5 mmol/L EDTA, 5 mmol/L EGTA, 2 mmol/L Na3VO4, 1% Triton X-100, 0.5 mmol/L PMSF, […], 10 mmol/L HEPES, pH 7.4) in a ethanol/dry ice bath followed by scraping and a 5 second sonication to achieve a homogeneous solution. Sample protein concentrations were determined using the Bradford protein assay kit (Bio-Rad, Hercules, Calif.). To characterize changes in protein levels in whole cell lysates, 10 μg of total protein was size fractioned by 12% SDS-PAGE, transferred to nitrocellulose and stained with Ponceau-S stain to ensure equal protein loading. For Western blot analysis, membranes were incubated for 1 hour in blocking solution containing 1% dry milk in PBS-T, followed by an overnight incubation with either anti-Stat3 (Santa Cruz Biotechnology, Santa Cruz, Calif.,) or anti-Phospho-Stat3 (Santa Cruz). Nitrocellulose membranes were then incubated for 1 hour with horseradish peroxidase conjugated anti-IgG antibodies and visualized using Super Signal West Pico enhanced chemiluminescence detection (Thermo Scientific, Waltham, Mass.).
Western Densitometry—Determination of Half-Maximal Inhibitory Concentration for Activating STAT3: Dose Response Curves Half-maximal inhibitory concentrations for activating STAT3 (IC50 values) were calculated in BT114 cells from western blot data. The original western blot films were analyzed by densitometric analysis using the software program NIH Image (available at rsb.info.nih.gov/nih-image/). Standard dose-response curves were then created using the software program Prism 5.

STAT3 [2] = target: T2, STAT3 (Mus musculus, UniProt P42227); test: STAT3 phosphorylation, Western blot, GL261 cells; type: cell-based, murine; conditions: GL261 cells (constitutively activated STAT3), 10 μM, Western blot (FIG. 1)
T2 construct: endogenous in cells; host or cells: GL261 (murine GBM cell line)
Experimental: as §1
(§2) Western Blot Analysis: Prior to analysis, cells were washed twice in cold phosphate buffered saline (PBS) and flash frozen in 200 μL of lysis buffer (50 mm/L NaCl, 50 mmol/L NaF, 50 mmol/L sodium pyrophosphate, 5 mmol/L EDTA, 5 mmol/L EGTA, 2 mmol/L Na3VO4, 1% Triton X-100, 0.5 mmol/L PMSF, […], 10 mmol/L HEPES, pH 7.4) in a ethanol/dry ice bath followed by scraping and a 5 second sonication to achieve a homogeneous solution. Sample protein concentrations were determined using the Bradford protein assay kit (Bio-Rad, Hercules, Calif.). […]

MAP kinase = test: Activated MAP kinase levels, Western blot, dBT114 cells; type: cell-based, human; conditions: increasing concentrations (FIG. 2)
Experimental: as §1, §2

Bcl-2 = test: Downstream target of STAT3 transcription: Bcl-2 protein level in dBT114 cells; type: cell-based, human; conditions: various concentrations, 24 hours (FIG. 3, FIG. 10B)
Experimental: (§3) STAT3 is a transcription factor that leads to the activation of several pro-proliferation proteins including Cyclin D1 and numerous anti-apoptotic proteins such as Bcl-2. To analyze the effects on the downstream targets of STAT3 transcription, Cyclin D1 and Bcl-2 protein levels were monitored after exposure to the compounds described. dBT114 cells were treated with various concentrations of C3, C10 or DMSO for 24 hours.
as §2, with “Calif.). To characterize changes in protein levels in whole cell lysates, 10 μg of total protein was size fractioned by 12% SDS-PAGE, transferred to nitrocellulose and stained with Ponceau-S stain to ensure equal protein loading.” for “Calif.).”

PARP = PARP cleavage in dBT114 cells; type: cell-based, human; conditions: various concentrations, 24 hours (FIG. 3, FIG. 10B)
[3] = system: glioblastoma (dBT114) cells; test: IncuCyte cell proliferation assay (confluence), dBT114; type: cell-based, human; conditions: for dose-dependent inhibition of tumor cell proliferation: dBT114 cells (FIG. 4B); for effect on tumor cell growth kinetics (confluence): 50 μM (FIG. 4A)
Experimental: (§4) Pyrazole-based inhibitors were tested for efficacy in stopping tumor cell growth by performing cell proliferation assays in glioblastoma (dBT114), medulloblastoma (DAOY) and human colorectal carcinoma (HCT116) cells lines. Tumor cells were plated in 96-well plates and varying concentrations of inhibitors or DMSO were added initially or after several log-growths of tumor cells. Cell proliferation was determined by measuring cell confluency using an automated system. […] Similar effects were found on tumor cell proliferation in DAOY and HCT116 tumor cell lines (FIG. 5, again only showing C6 data). The effects of C6 and C3 on tumor cell proliferation were compared to other previously characterized inhibitors, specifically, WP1066 (a Jak2 inhibitor) and LLL-12 (a direct STAT3 inhibitor).
(§5) IncuCyte Cell Proliferation Assay: Cell proliferation assays were performed on dBT114, DAOY and HCT116 cells using an IncuCyte 2011A microplate imager (Essen BioScience, Ann Arbor, Mich.). Cells were plated at a density of 3000 cells per well in a 96 well plate and allowed to reach exponential growth phase prior to the addition of test compounds. Cell confluence was measured optically every three hours for up to 90 hours.

dBT114 cells = test: Annexin V/propidium iodide apoptosis assay, dBT114; type: cell-based, human; conditions: for cell death through apoptosis (Annexin V/PI flow cytometry): dBT114 (BT114) cells, dose dependent, 24 hours
Experimental: (§6) The compounds were tested for their effect on tumor cell viability by initiating apoptosis through Annexin V-FITC cell staining analysis. […] Cell death was most pronounced in DAOY cells, followed by BT114 and then HCT cells (FIG. 8). […] The difference in cell death between cell lines may reflect differences in STAT3 signaling between tumor cell types.
(§7) Apoptosis Assay: Analysis of cell death through an apoptosis pathway was determined using an Annexin V apoptosis detection kit (Calbiochem, Rockland, Mass.). dBT114, DAOY and HCT116 cells were plated in 6-well tissue culture plates at a density of 500 cells per well and allowed to reach 60% confluence prior to addition of test compounds for 24 hours. Floating and adherent cells were harvested and stained with FITC-labeled Annexin V and propidium iodide for 15 minutes at room temperature in the dark. The cells were then washed with cold binding buffer and immediately analyzed by flow cytometry for cells staining positive for both Annexin V and propidium iodide.

[4] = system: Normal Human Astrocytes (NHA)
Experimental: (§8) MTT Cell Proliferation Assay: Normal Human Astrocytes (Lonza) and human BT114 cells were plated at a density of 5000 cells per well in a 96-well tissue culture plate and incubated at 37° C. in the presence of 5% CO2 for 24 hours. Cell proliferation was determined using the CellTiter 96 Cell Proliferation Assay (Promega). After 24 hours cells were refed with normal media and MTT dye solution was added according to manufacturer's protocol. After 4 hours the reaction was stopped and absorbance was measured at 570 nm using a 96 well plate reader. […] (n=4).

DAOY cells [5] = test: Annexin V/propidium iodide apoptosis assay, DAOY; type: cell-based; conditions: dose dependent, 24 hours
Experimental: as §6, §7

HCT116 cells = test: Annexin V/propidium iodide apoptosis assay, HCT116; type: cell-based, human; conditions: HCT (HCT116) cells, dose dependent, 24 hours
Experimental: as §6, §7

[6] = system: Normal Human Astrocytes (NHA); test: MTT cell proliferation assay, normal human astrocytes; conditions: 24 hour exposure, increasing concentrations, n=4 (FIG. 13)
Experimental: as §8

[7] = system: medulloblastoma (DAOY) cells; test: IncuCyte cell proliferation assay (confluence), DAOY; type: cell-based; conditions: DAOY cells (FIG. 5A)
Experimental: as §4, §5

[8] = system: human colorectal carcinoma (HCT116) cells; test: IncuCyte cell proliferation assay (confluence), HCT116; type: cell-based; conditions: human colorectal carcinoma cell line HCT116 (FIG. 5B)
Experimental: as §4, §5

DAOY cells [9] = test: Uptake in living cells by confocal microscopy; type: cell-based; conditions: live DAOY cells, 50 μM, 30 minutes, confocal microscopy (FIG. 9)
Experimental: Further, live DAOY cells were treated with 50 μM C9 for 30 minutes and then evaluated its uptake with confocal microscopy.

Cyclin D1 = test: Downstream target of STAT3 transcription: Cyclin D1 protein level in dBT114 cells; type: cell-based, human; conditions: various concentrations, 24 hours (FIG. 3)
Experimental: as §3
as §2, with “Calif.). To characterize changes in protein levels in whole cell lysates, 10 μg of total protein was size fractioned by 12% SDS-PAGE, transferred to nitrocellulose and stained with Ponceau-S stain to ensure equal protein loading.” for “Calif.).”

T1 sequence (P40763 whole entry): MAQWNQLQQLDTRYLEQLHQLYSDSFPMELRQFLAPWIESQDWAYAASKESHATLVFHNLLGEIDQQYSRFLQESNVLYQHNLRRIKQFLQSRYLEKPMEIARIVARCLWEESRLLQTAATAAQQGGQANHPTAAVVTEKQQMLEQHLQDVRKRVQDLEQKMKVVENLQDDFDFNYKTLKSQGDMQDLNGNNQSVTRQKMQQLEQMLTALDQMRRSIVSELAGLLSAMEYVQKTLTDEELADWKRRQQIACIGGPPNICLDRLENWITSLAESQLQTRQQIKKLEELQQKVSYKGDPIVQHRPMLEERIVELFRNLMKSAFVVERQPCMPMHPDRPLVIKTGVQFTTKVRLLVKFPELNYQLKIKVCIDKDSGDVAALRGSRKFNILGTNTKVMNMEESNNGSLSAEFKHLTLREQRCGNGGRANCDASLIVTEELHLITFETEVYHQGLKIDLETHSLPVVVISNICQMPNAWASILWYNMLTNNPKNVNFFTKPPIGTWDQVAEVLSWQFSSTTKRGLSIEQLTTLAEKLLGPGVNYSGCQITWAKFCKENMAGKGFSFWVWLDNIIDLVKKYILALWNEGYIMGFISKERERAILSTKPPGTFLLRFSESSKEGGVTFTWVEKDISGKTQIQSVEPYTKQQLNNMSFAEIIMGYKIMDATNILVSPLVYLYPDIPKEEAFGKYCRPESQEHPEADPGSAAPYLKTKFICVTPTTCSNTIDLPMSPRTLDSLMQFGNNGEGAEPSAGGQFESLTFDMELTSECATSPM
T2 sequence (P42227 whole entry): as the sequence (P40763 whole entry) above, with E760D counted along it

Compound	inhibition of STAT3 phosphorylation (STAT3 [1])	IC50 (STAT3 [1]) [nM]	dose dependence of inhibition of IL-6 induced STAT3 phosphorylation (STAT3 [1])	inhibition of STAT3 phosphorylation (STAT3 [2])	effect on levels of activated MAP kinase (MAP kinase)	Bcl-2 protein level (Bcl-2)	cleavage of PARP (induction of apoptosis) (PARP)	dose-dependent inhibition of tumor cell proliferation [3]	effect on tumor cell growth kinetics (confluence) ([3]; dBT114 cells)	cell death through apoptosis (Annexin V/PI flow cytometry) (dBT114 cells)	metabolic activity of normal human astrocytes [4]	cell death through apoptosis (Annexin V/PI flow cytometry) (DAOY cells [5])	cell death through apoptosis (Annexin V/PI flow cytometry) (HCT116 cells)	metabolic activity of normal human astrocytes [6]	cellular proliferation, combination with temozolomide (TMZ) ([3]; dBT114 cells, C6 fixed 25 μM with increasing concentrations of TMZ (FIG. 7))	dose-dependent inhibition of tumor cell proliferation [7]	dose-dependent inhibition of tumor cell proliferation [8]	relative potency in causing cell death (dBT114 cells; all cell lines tested (BT114, DAOY, HCT))	uptake and fluorescence in living cells (DAOY cells [9])	Cyclin D1 protein level (Cyclin D1)
CNC(=O)COCC(=O)Nc1ccc(Cc2cc(-c3ccc(Br)cc3)n(-c3ccc(S(N)(=O)=O)cc3)n2)cc1 [C3, 3-[{2-[(Methylaminocarbonyl)-methoxy]-acetyl}-(4-aminobenzyl)]-5-(4-bromophenyl)-1-(4-aminosulfonylphenyl)-1H-pyrazole]	potently inhibited; also recorded: blocked	670	dose-dependent inhibition	potently inhibited; also recorded: blocked	no effect	decreased Bcl-2 in a dose dependent fashion; also recorded: dose-dependent reduction	cleavage of PARP; also recorded: increase	dose-dependent inhibition	profound effect	dose-dependent apoptosis	no clear pattern of increased or decreased metabolic activity									
CC(=O)Nc1ccc(Cc2cc(-c3ccc(Br)cc3)n(-c3ccc(S(N)(=O)=O)cc3)n2)cc1 [C4, 3-(4-Acetamidebenzyl)-5-(4-bromophenyl)-1-(4-aminosulfonylphenyl)-1H-pyrazole]		> 50000						dose-dependent inhibition		cell death through apoptosis; also recorded: dose-dependent apoptosis		cell death through apoptosis	cell death through apoptosis	no clear pattern of increased or decreased metabolic activity						
CC(C)CCc1cc(-c2ccc(Br)cc2)n(-c2ccc(S(N)(=O)=O)cc2)n1 [C6, 5-(4-Bromophenyl)-3-(isopentyl)-1-(4-aminosulfonylphenyl)-1H-pyrazole]		13400						dose-dependent inhibition; also recorded: dose dependent inhibition	profound effect	cell death through apoptosis; also recorded: dose-dependent apoptosis		cell death through apoptosis	cell death through apoptosis	no clear pattern of increased or decreased metabolic activity	dose-dependent decrease	dose dependent inhibition	dose dependent inhibition	more potent than C4		
CC(C)CCc1cc(-c2ccccc2)nn1-c1ccc(S(N)(=O)=O)cc1 [C9, 3-(Phenyl)-5-(isopentyl)-1-(4-aminosulfonylphenyl)-1H-pyrazole]																			strong uptake and fluorescence	
NS(=O)(=O)c1ccc(-n2nc(Cc3ccc(NC(=O)COCC(=O)NCCCCCCCNC(=O)COCC(=O)Nc4ccc(Cc5cc(-c6ccc(Br)cc6)n(-c6ccc(S(N)(=O)=O)cc6)n5)cc4)cc3)cc2-c2ccc(Br)cc2)cc1 [C10, 3-[{2-[(7-{2-[((4-((5-(4-Bromophenyl)-1-(4-sulfamoylphenyl)-1H-pyrazol-3-yl)methyl)phenyl)aminocarbonyl)-methoxy]-acetylamino}-heptylaminocarbonyl)-methoxy]-acetyl}-(4-aminobenzyl)]-5-(4-bromophenyl)-1-(4-aminosulfonylphenyl)-1H-pyrazole]	potently inhibited; also recorded: blocked	207	dose-dependent inhibition	potently inhibited; also recorded: blocked	no effect	dose-dependent reduction	increase			dose-dependent apoptosis	no clear pattern of increased or decreased metabolic activity									decreased Cyclin D1 levels in a dose dependent fashion
